According to ChEMBL document CHEMBL6127079, “Design and synthesis of spiro[pyrrolidine-3,3'-quinoline]-2,2'-dione derivatives as novel antifungal agents targeting chitin synthase” (Eur J Med Chem, 2024):
In brackets after ≈: the same amount, converted by molar mass.

Legend:
Candida tropicalis = test: Inhibition of chitin synthase extracted from Candida tropicalis ATCC 750 using UDP-GlcNAc as substrate assessed as inhibition rate at 300 ug/ml by TMB based microplate analyzer relative to control; conditions: dose 300.0 µg/ml
[1] = Inhibition of chitin synthase extracted from Candida tropicalis ATCC 750 using UDP-GlcNAc as substrate assessed as inhibition rate by TMB based microplate analyzer relative to control
Candida albicans = test: Antifungal activity against Candida albicans ATCC 76615 assessed as inhibition of growth incubated for 24 hrs by two-fold serial dilution method; format: functional
Aspergillus flavus = test: Antifungal activity against Aspergillus flavus ATCC 16870 assessed as inhibition of growth incubated for 24 hrs by two-fold serial dilution method; format: functional
Aspergillus fumigatus = test: Antifungal activity against Aspergillus fumigatus GIMCC 3.19 assessed as inhibition of growth incubated for 24 hrs by two-fold serial dilution method; format: functional
Cryptococcus neoformans = test: Antifungal activity against Cryptococcus neoformans ATCC 32719 assessed as inhibition of growth incubated for 24 hrs by two-fold serial dilution method; format: functional

Row | SMILES | inhibition (Candida tropicalis) [%] | IC50 [1] [µM] | MIC (Candida albicans) [µg/mL] | MIC (Aspergillus flavus) [µg/mL] | MIC (Aspergillus fumigatus) [µg/mL] | MIC (Cryptococcus neoformans) [µg/mL]
1 | CCCNC(=O)C1CCN(CC(=O)Nc2ccc3c(c2)NC(=O)C2(CCNC2=O)C3)CC1 (racemic) | 22.5 |  | 128 (≈ 290 µM) | 128 (≈ 290 µM) | 256 (≈ 580 µM) | 512 (≈ 1160 µM)
2 | COc1ccc(NC(=O)/C=C/C(=O)Nc2ccc3c(c2)NC(=O)C2(CCNC2=O)C3)cc1 (racemic) | 49.3 |  | 64 (≈ 147 µM) | 32 (≈ 73.7 µM) | 64 (≈ 147 µM) | 32 (≈ 73.7 µM)
3 | O=C(/C=C/C(=O)Nc1ccc2c(c1)NC(=O)C1(CCNC1=O)C2)Nc1ccc(Cl)cc1 (racemic) | 56.3 | 496 | 32 (≈ 72.9 µM) | 32 (≈ 72.9 µM) | 32 (≈ 72.9 µM) | 64 (≈ 146 µM)
4 | CC(C)NC(=O)/C=C/C(=O)Nc1ccc2c(c1)NC(=O)C1(CCNC1=O)C2 (racemic) | 34.6 |  | 128 (≈ 346 µM) | 256 (≈ 691 µM) | 64 (≈ 173 µM) | 128 (≈ 346 µM)
5 | O=C(/C=C/C(=O)Nc1ccc2c(c1)NC(=O)C1(CCNC1=O)C2)Nc1ccc(F)c(Cl)c1 (racemic) | 48.7 |  | 32 (≈ 70 µM) | 64 (≈ 140 µM) | 128 (≈ 280 µM) | 32 (≈ 70 µM)
6 | CCCNC(=O)/C=C/C(=O)Nc1ccc2c(c1)NC(=O)C1(CCNC1=O)C2 (racemic) | 36.9 |  | 128 (≈ 346 µM) | 128 (≈ 346 µM) | 64 (≈ 173 µM) | 128 (≈ 346 µM)
7 | CCCN(CCC)C(=O)/C=C/C(=O)Nc1ccc2c(c1)NC(=O)C1(CCNC1=O)C2 (racemic) | 26.3 |  | 128 (≈ 310 µM) | 128 (≈ 310 µM) | 256 (≈ 621 µM) | 128 (≈ 310 µM)
8 | O=C(/C=C/C(=O)Nc1ccc2c(c1)NC(=O)C1(CCNC1=O)C2)Nc1ccc(F)cc1 (racemic) | 46.8 |  | 128 (≈ 303 µM) | 32 (≈ 75.8 µM) | 64 (≈ 152 µM) | 32 (≈ 75.8 µM)

The remaining lines, values ahead:

Row | inhibition (Candida tropicalis) [%] | IC50 [1] [µM] | MIC (Candida albicans) [µg/mL] | MIC (Aspergillus flavus) [µg/mL] | MIC (Aspergillus fumigatus) [µg/mL] | MIC (Cryptococcus neoformans) [µg/mL] | SMILES
9 | 45.1 | 286 | 32 (≈ 65.4 µM) | 64 (≈ 131 µM) | 128 (≈ 261 µM) | 32 (≈ 65.4 µM) | Cc1ccc(NC(=O)C2CCN(CC(=O)Nc3ccc4c(c3)NC(=O)C3(CCNC3=O)C4)CC2)cc1 (racemic)
10 | 73.9 | 157 | 8 (≈ 16.6 µM) | 32 (≈ 66.3 µM) | 256 (≈ 530 µM) | 512 (≈ 1060 µM) | O=C(CN1CCC(C(=O)Nc2nccs2)CC1)Nc1ccc2c(c1)NC(=O)C1(CCNC1=O)C2 (racemic)
11 | 41.3 | 166 | 64 (≈ 125 µM) | 16 (≈ 31.4 µM) | 16 (≈ 31.4 µM) | 32 (≈ 62.7 µM) | O=C(CN1CCC(C(=O)Nc2ccc(Cl)cc2)CC1)Nc1ccc2c(c1)NC(=O)C1(CCNC1=O)C2 (racemic)
12 | 42.3 |  | 32 (≈ 63.5 µM) | 32 (≈ 63.5 µM) | 64 (≈ 127 µM) | 64 (≈ 127 µM) | Cc1ccc(NC(=O)C2CCN(CC(=O)Nc3ccc4c(c3)NC(=O)C3(CCNC3=O)C4)CC2)cc1C (racemic)
13 | 35.8 |  | 64 (≈ 135 µM) | 32 (≈ 67.3 µM) | 128 (≈ 269 µM) | 64 (≈ 135 µM) | O=C(CN1CCC(C(=O)Nc2ccccc2)CC1)Nc1ccc2c(c1)NC(=O)C1(CCNC1=O)C2 (racemic)
14 | 75.9 |  | 128 (≈ 253 µM) | 32 (≈ 63.3 µM) | 64 (≈ 127 µM) | 64 (≈ 127 µM) | COc1ccc(NC(=O)C2CCN(CC(=O)Nc3ccc4c(c3)NC(=O)C3(CCNC3=O)C4)CC2)cc1 (racemic)
